Assay results published in patent publication US20170100353A1, “COMPOSITIONS AND METHODS THAT TARGET OLFACTORY RECEPTORS FOR REGULATION OF BREATHING” (The Board of Trustees of the Leland Stanford Junio, priority 2015, published 2017).
Like-named read-outs stand apart in the source and are kept apart here.

How the values were obtained:
OR51E1 [1] = target: T1, OR51E1 (Homo sapiens, UniProt Q8TCB6); details: another study and a more recent study; cited from earlier work
T1 sequence (Q8TCB6 1-318): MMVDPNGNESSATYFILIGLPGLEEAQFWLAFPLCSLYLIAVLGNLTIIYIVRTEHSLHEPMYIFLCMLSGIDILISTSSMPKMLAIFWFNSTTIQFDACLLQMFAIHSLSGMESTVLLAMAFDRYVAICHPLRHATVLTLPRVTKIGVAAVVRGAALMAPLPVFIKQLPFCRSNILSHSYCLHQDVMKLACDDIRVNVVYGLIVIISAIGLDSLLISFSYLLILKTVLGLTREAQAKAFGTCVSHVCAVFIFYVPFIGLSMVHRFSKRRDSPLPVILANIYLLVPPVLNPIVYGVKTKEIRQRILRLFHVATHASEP

Olfr78 [2] = target: T2, Olfr78 (Mus musculus, UniProt Q8VBV9); experiment: Luciferase dual reporter assay of Olfr78 expressed in HEK293T cells; format: cell-based
T2 construct: host or cells: HEK293T
T2 sequence (Q8VBV9 1-320): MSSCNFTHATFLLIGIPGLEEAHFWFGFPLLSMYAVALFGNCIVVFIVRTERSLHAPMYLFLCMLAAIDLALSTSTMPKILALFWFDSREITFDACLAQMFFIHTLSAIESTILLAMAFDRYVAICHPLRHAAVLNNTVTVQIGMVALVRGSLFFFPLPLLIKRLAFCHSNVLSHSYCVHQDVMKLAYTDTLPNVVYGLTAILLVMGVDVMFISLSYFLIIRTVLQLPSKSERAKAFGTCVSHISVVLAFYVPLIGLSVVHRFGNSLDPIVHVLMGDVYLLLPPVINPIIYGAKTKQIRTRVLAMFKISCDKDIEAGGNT
Description: pCl-Rho-Olfr78 plasmid construction and expression. The pCl-Rho-Olfr78 plasmid was made by PCR amplifying the Olfr78 coding region from a pCMV6-Olfr78 plasmid (OriGene) using forward primer 5′-[…]-3′ and reverse primer 5′-[…]-3′, adding EcoR1 and Not1 restriction sites. The Olfr78 PCR fragment was then digested with EcoR1 and Not1 and cloned into a pCl-Rho backbone cut from a pCl-Rho-Olfr62 plasmid (gift of Hiroaki Matsunami, Duke University). […] Cytoplasmic GFP (co-transfection marker) was expressed from a TBC1 D25::eGFP plasmid (gift of Suzanne Pfeffer, Stanford University).
Luciferase assay. HEK293T cells were grown and seeded into 96 well plates. On the next day, cells were transfected with RTP1S, Gα15-olf (gifts of Hiroaki Matsunami, Duke University), pCMV6-Ric8b (Origene), pCRE-Luc (Agilent), and pSV40-RL (Promega) plasmids and either pCl-Rho-Olfr78 or pCl (Promega). The Rho tag on Olfr78 and RTP1S were used to enhance localization of Olfr78 to the plasma membrane. Gα15-olf and Ric8b were included as downstream effectors that couple to ORs to increase cAMP production upon OR activation. Two transcriptional luciferase reporters, one constitutive (Renilla, pSV40-RL) and one inducible by cAMP (firefly, pCRE-Luc) were transfected to report increased cAMP levels upon OR activation.
Five hours after transfection, media was decanted and replaced with 50 μL/well MEM without phenol red (Life Technologies). After thirty minutes, 25 μL of chemicals were added to each well to achieve the indicated final concentrations, and cells were incubated for 2 hours. Sodium salts of chloride, L-lactate, propionate, and acetate (Sigma) were used.
Reagents to detect firefly and Renilla luciferase activity (Dual-Glo Luciferase Assay System, Promega) were added at 20 μl/well. Luminescence was measured using an Infinite M1000 (Tecan) microplate reader and data acquired by Magellan Data Analysis Software (Tecan). Two readings were collected for each plate and luciferase reagent, and firefly to Renilla ratios were averaged. Data was from experiments conducted over three days. For dose response curves in FIG. 4a and FIGS. 11d-f, ratios were normalized to the highest and lowest average values for a given condition across all plates on each day.
Data analysis and statistics. Data analysis and statistical tests were performed using Microsoft Excel and GraphPad software. GraphPad Prism 6 was used to fit dose-response curves using a variable slope model and to calculate EC50 values. All data are biological replicates, and quantitative data with error bars are presented as mean±standard error of the mean (s.e.m.) with the exception of FIG. 11c, which is presented as percent±standard error of percentage. […] No statistical method was used to predetermine sample size.

Olfr78 [3] = target: T2, Olfr78; details: cited from earlier work
carotid body = experiment: Carotid sinus nerve recordings (carotid body sensory activity); parameters: species or system mouse; details: 30 mM, PO2=625 mmHg; for Carotid sinus nerve activity, Olfr78-/- mutants: Olfr78-/- mutant nerves; for Carotid sinus nerve activity, Olfr78+/+: wild-type Olfr78+/+ preparations
OR51E2 [4] = target: T3, OR51E2 (Homo sapiens, UniProt Q9H255); details: cited from earlier work
T3 construct: host or cells: HEK293T
T3 sequence (Q9H255 1-320): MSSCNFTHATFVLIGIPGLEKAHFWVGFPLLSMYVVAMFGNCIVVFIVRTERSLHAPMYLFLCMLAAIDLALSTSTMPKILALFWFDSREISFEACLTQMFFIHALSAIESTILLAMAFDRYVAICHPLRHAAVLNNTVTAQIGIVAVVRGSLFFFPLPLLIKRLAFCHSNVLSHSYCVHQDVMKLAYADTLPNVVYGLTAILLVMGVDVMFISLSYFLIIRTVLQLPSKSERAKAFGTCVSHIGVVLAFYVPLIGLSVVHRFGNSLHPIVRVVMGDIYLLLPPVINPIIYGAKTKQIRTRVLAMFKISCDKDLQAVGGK

OR51E1 [5] = target: T1, OR51E1; details: screen of 93 named compounds; cited from earlier work
[6] = system: carotid body glomus cells; experiment: Calcium imaging of GCaMP3-expressing carotid body glomus cells; format: cell-based, mouse; details: lactate 30 mM, cyanide 2 mM; whole carotid bodies and slice preparations; hyperoxia
Olfr558 = Olfr558 (Mus musculus, UniProt Q8VGZ7); details: screen of 93 named compounds; cited from earlier work
OR51E2 [7] = target: T3, OR51E2; details: screen of 93 named compounds; cited from earlier work
[8] = study looking at Olfr78 and OR51E2
[9] = heterologous expression in HEK293T cells, same range of concentrations

Sequence of Olfr558 (Q8VGZ7 entry or part of it): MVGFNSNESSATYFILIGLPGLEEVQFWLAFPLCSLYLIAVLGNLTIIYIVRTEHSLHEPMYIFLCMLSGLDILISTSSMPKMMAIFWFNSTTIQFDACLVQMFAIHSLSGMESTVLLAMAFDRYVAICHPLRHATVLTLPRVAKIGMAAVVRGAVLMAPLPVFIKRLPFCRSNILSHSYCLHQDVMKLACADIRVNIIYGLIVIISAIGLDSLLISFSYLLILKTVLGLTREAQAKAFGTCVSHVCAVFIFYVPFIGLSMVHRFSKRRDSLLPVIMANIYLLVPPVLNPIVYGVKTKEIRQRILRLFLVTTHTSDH

Structure (SMILES) | Agonist activity at OR51E1 (OR51E1 [1]) | Carotid sinus nerve activity, Olfr78-/- mutants (carotid body) | Carotid sinus nerve activity, Olfr78+/+ (carotid body) | Activation of Olfr78 (in words) (Olfr78 [2]; [9]) | further results
CCC(C)CC(=O)O (stereo not drawn) [3-methyl-valeric acid] | agonists |  |  |  | 
CC(C)CCC(=O)O [4-methyl-valeric acid] | agonists |  |  |  | 
Cl [Chloride ion, chloride] |  |  |  |  | Activation of Olfr78 (in words) (Olfr78 [2]): no effect
CC(=O)O [acetate] |  | little effect | stimulate carotid sinus nerve activity | stimulated Olfr78 | Agonist activity at Olfr78 (Olfr78 [3]; [8]): agonists; Agonist activity at OR51E2 (OR51E2 [4]; [8]): agonists
CCCCOC(=O)C(C)OC(=O)CCC (stereo not drawn) [butyl butylryllactate] |  |  |  |  | Agonist activity at OR51E1 in chemical screen (OR51E1 [5]): activated
O=CO [formate] |  |  |  |  | Agonist activity at Olfr78 (Olfr78 [3]): not; Agonist activity at OR51E2 (OR51E2 [4]): not
CC(C)CC(=O)O [isovaleric acid] | activated |  |  |  | 
CC(O)C(=O)O (stereo not drawn) [lactate, 2-hydroxypropanoic acid] |  | little response | increased carotid sinus nerve activity | activated Olfr78 in a dose-dependent manner | Calcium response of glomus cells [6]: induced calcium transients; EC50 (Olfr78 [2]; heterologous expression in HEK293T cells, sodium salts, 2 hours stimulation, read-out: EC50 for activation of Olfr78): 4 mM
CCCCCCCCC(=O)O [nonanoic acid] | activated |  |  |  | Agonist activity at Olfr558 in chemical screen (Olfr558): activated; Agonist activity at OR51E1 in chemical screen (OR51E1 [5]): activated
CCC(=O)O [propionate, propionic acid] | activated | little effect | stimulate carotid sinus nerve activity | stimulated Olfr78 | Agonist activity at Olfr78 (Olfr78 [3]; [8]): agonists; Agonist activity at OR51E2 in chemical screen (OR51E2 [7]): specifically activated; Agonist activity at OR51E2 (OR51E2 [4]; [8]): agonists
